# Patent US20080004561A1, “Method for Treating Oncological, Virulent and Somatic Diseases, Method for Controlling Treatment Efficiency, Pharmaceutical Agents and Composition for Carrying Out Said Treatment” (priority 2005, published 2008)
# Tests used:
# [1] = test system: blood plasma DNA; experiment: Blood plasma DNA concentration after end of DNase treatment course (Example 2); type: in vivo; settings: Erlich carcinoma mice
# Experimental: Fresh blood plasma (not more than 3-4 hours after isolation) with anticoagulant (sodium citrate) addition was centrifuged on Ficoll-PlaquePlus (Amersham-Pharmacia) step at 1500 g for 20 minutes at room temperature. Plasma (½ of all amount) was neatly isolated avoiding touching cells sediment on ficoll step and was centrifuged at 10 000 g for 30 minutes to eliminate cells and debris. Supernatant was taken away not touching sediment and up to 1% of sarcosile, up to 50 mM of tris HCl pH 7,6, up to 20 mM EDTA, up to 400 mM NaCl and equal volume of phenol—chloroform mixture 1:1 were added. Received emulsion was incubated at 65° C. for 2 hours than phenol-chloroform was separated by centrifuging at 5000 g during 20 minutes at room temperature. Deproteinization by phenol-chloroform method was identically repeated for three times after what water phase was processed by chloroform and after it by diethyl ether.
# Organic solvents' separation was done by centrifuging at 5000 g during 15 minutes. Equal part of isopropanol was added to water phase and incubated during night at 0° C.
# After sedimentation nucleic acids were separated by centrifuging at 10 000 g during 30 minutes. […]
# DNA was isolated by method that is mentioned above. DNA amount was spectrophotometrically measured. […]
# [2] = test system: Staphylococcus aureus VT-2003R; experiment: DNase use for treatment of the experimental sepsis (Example 5); type: in vivo; settings: mice, DNase 500 mkg/kg intraperitoneally four times a day, 1-3 days after infection
# Description: White not thoroughbred mice were used for experiment. Animals' weight was 24-26 grams. Pathogenic strain of Staphylococcus aureus VT-2003R at 1×10^10 bacteria/animal dose was inoculated to retroorbital sinus of animals. DNase was intraperitoneally administered. Isotonic solution of sodium chloride or Penicillin was administrated to control groups. Each experimental group contained 10 mice. Intraperitoneal administration of compound (DNAase) four times a day at 500 mkg/kg dose continued for 1-3 days after infection. Penicillin was intramusculary administrated. Efficiency of action was estimated by number of animals that stayed alive after the death of the last one in control group. All animals have died to the third day of the experiment in control group. Six animals stayed alive to the third day of the experiment in the group that administrated DNase. Protection was […]. Received data specify an opportunity and efficiency of DNase use for infections' treatment.
# [3] = test system: LLC tumor (highly metastatic strain); experiment: DNase I influence on life span of mice transplanted with LLC tumor, highly metastatic strain (Example 16); type: in vivo, C57B1 mice; settings: for Tumor's growth at the last day of DNase treatment: DNase 1 mg/kg two times a day, growth renewed after withdrawal; for 30 day (number of alive\number of dead in group) / 50 day (number of alive\number of dead in group): DNase 1 mg/kg intraperitoneally two times a day
# Experimental: Five groups of LLC transplanted mice participated in the experiment.
# Group 1—7 mice (control).
# Group 2—6 mice were treated with intraperitoneal administration of DNase at 1 mg/kg dose two times a day starting from 3 up to 7 day after tumor transplantation.
# Group 3—6 mice were treated with intraperitoneal administration of DNase at 1 mg/kg dose two times a day starting from 3 up to 10 day after tumor transplantation.
# Group 4—6 mice were treated with intraperitoneal administration of DNase at 1 mg/kg dose two times a day starting from 3 up to 15 day after tumor transplantation.
# Group 5—6 mice were treated with intraperitoneal administration of DNase at 1 mg/kg dose two times a day starting from 3 up to 18 day after tumor transplantation.
# Results of experiment were estimated according to animals' survival on the 30 and 50 day after tumor transplantation.
# [4] = test system: HPRT gene's mutations in blood T-lymphocytes; experiment: Frequency of HPRT gene's mutations in blood T-lymphocytes, somatic mosaicism model (Example 18); type: in vivo; settings: patients on Neovir after tumor surgery; human recombinant DNase I 200 mkg/kg intravenously 4 times a day during three weeks
# Description: Frequency of HPRT gene's mutations in blood T-lymphocytes was studied as a model of somatic mosaicism. Human HPRT gene (chromosome Xq26) encodes enzyme that is constitutionally expressing but not essential and is involved in metabolism of purine nucleotides. Cloning was done according to Bigbee W. method (Bigbee W. Et al., Mutation Res., 1998, v. 397, pp. 119-136).
# [5] = test system: metastases development; settings: systemic introduction; Sugihara S. et al. (1990, 1993); cited from earlier work
substance,measurement,setting,value
DNase,Blood plasma DNA concentration,[1]; DNase 0.5 mg/kg four times a day,38.5 ng/mL
same,Blood plasma DNA concentration,[1]; DNase 1 mg/kg twice a day,55.1 ng/mL
same,Number of animals that stayed alive to the third day,[2]; 10 per group,Six
same,Protection,[2],67%
same,Tumor's growth at the last day of DNase treatment,"[3]; 2nd group, day 3 to 7",significant inhibition of tumor's growth
same,Tumor's growth at the last day of DNase treatment,"[3]; 3rd group, day 3 to 10",significant inhibition of tumor's growth
same,30 day (number of alive\number of dead in group),[3]; day 3 to 7,0-6
same,50 day (number of alive\number of dead in group),[3]; day 3 to 7,0-6
same,30 day (number of alive\number of dead in group),[3]; day 3 to 10,3-6
same,50 day (number of alive\number of dead in group),[3]; day 3 to 10,0-6
same,50 day (number of alive\number of dead in group),[3]; day 3 to 15,3-3
same,Inhibition of tumor growth at day 18,[3]; DNase 1 mg/kg two times a day from 3rd up to 18th day,more than 95%
same,"Incidence of HPRT-deficient clones, times less than with immunostimulating therapy only",[4],3 times
same,Metastases development,[5],could slow metastases development
